The first test has as its target MCH receptor (Homo sapiens, UniProt Q99705). Nature of the test: High throughput functional screening FLIPR/FDSS6000: inhibition of MCH-evoked intracellular Ca2+ changes. It counts as cell-based. The settings on record: class by percent of control at 10^-7 M or IC50. In short, it runs like this:
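Antagonism was measured as inhibition of calcium responses to 50 nM MCH, monitored 290 s at ex 488/em 530 nm on FLIPR or FDSS6000. Beforehand, cells bearing a constitutively active MCH receptor received Fluo4-AM (4 μM, 1 h, 37 °C) with probenecid, and test compound for 3 min.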
Take `CN(C)c1nc(N[C@H]2CC[C@@H](NC(=S)Nc3ccccc3OC(F)F)CC2)nc2ccccc12` [compound 215]: the class is given as 3 (Class 3: The value of percent of control at 10^−7 M was more than 60% or the value of IC50 was more than 200 nM.). Take `Cc1cccc(C(C)C)c1NC(=S)NC[C@H]1CC[C@@H](Nc2nc(N(C)C)c3ccccc3n2)CC1` [compound 787]: the class was 1 (Class 1: The value of percent of control at 10^−7 M was less than 40% or the value of IC50 was less than 50 nM.). For the compound `CN(C)c1nc(N[C@H]2CC[C@@H](CNC(=S)Nc3ccc(F)c(C(F)(F)F)c3)CC2)nc2ccccc12` [compound 660], the class was 3 (Class 3: The value of percent of control at 10^−7 M was more than 60% or the value of IC50 was more than 200 nM.). Still for that read-out and setting: the result for `CN(C)c1nc(N[C@H]2CC[C@@H](CNC(=O)NC34CC5CC(CC(C5)C3)C4)CC2)nc2ccccc12` (relative stereo) [compound 406] reads 3 (Class 3: The value of percent of control at 10^−7 M was more than 60% or the value of IC50 was more than 200 nM.); that for `CN(C)c1nc(N[C@H]2CC[C@@H](NC(=S)Nc3ccccc3C(F)(F)F)CC2)nc2ccccc12` [compound 208], 3 (Class 3: The value of percent of control at 10^−7 M was more than 60% or the value of IC50 was more than 200 nM.); that for `CN(C)c1nc(N[C@H]2CC[C@@H](CNC(=O)Nc3cc([N+](=O)[O-])ccc3Cl)CC2)nc2ccccc12` [compound 487], 3 (Class 3: The value of percent of control at 10^−7 M was more than 60% or the value of IC50 was more than 200 nM.). `COc1ccc(CCNC(=S)N[C@H]2CC[C@@H](Nc3nc(N(C)C)c4ccccc4n3)CC2)cc1OC` [compound 241]: the class is recorded as 3 (Class 3: The value of percent of control at 10^−7 M was more than 60% or the value of IC50 was more than 200 nM.).

For `COc1ccccc1CNC(=S)N[C@H]1CC[C@@H](Nc2nc(N(C)C)c3ccccc3n2)CC1` [compound 367, N-(cis-4-{[4-(dimethylamino)quinazolin-2-yl]amino}cyclohexyl)-N′-(2-methoxybenzyl)thiourea], the class is recorded as 2 (Class 2: The value of percent of control at 10^−7 M was from 40% to 60% or the value of IC50 was from 50 nM to 200 nM.). On the same count and under the same terms, the result for `CN(C)c1nc(N[C@H]2CC[C@@H](NC(=S)Nc3cc(F)cc(F)c3)CC2)nc2ccccc12` [compound 224] reads 3 (Class 3: The value of percent of control at 10^−7 M was more than 60% or the value of IC50 was more than 200 nM.); that for `CN(C)c1nc(N[C@H]2CC[C@@H](NC(=S)NC3CC3)CC2)nc2ccccc12` [compound 288, N-cyclopropyl-N′-(cis-4-{[4-(dimethylamino)quinazolin-2-yl]amino}cyclohexyl)thiourea], 2 (Class 2: The value of percent of control at 10^−7 M was from 40% to 60% or the value of IC50 was from 50 nM to 200 nM.). Still for that read-out and setting: the result for `CN(C)c1nc(N[C@H]2CC[C@@H](NC(=S)Nc3cc(F)ccc3Br)CC2)nc2ccccc12` [compound 364] reads 2 (Class 2: The value of percent of control at 10^−7 M was from 40% to 60% or the value of IC50 was from 50 nM to 200 nM.); that for `COc1ccc(C(=O)NC(=S)N[C@H]2CC[C@@H](Nc3nc(N(C)C)c4ccccc4n3)CC2)cc1` [compound 321], 3 (Class 3: The value of percent of control at 10^−7 M was more than 60% or the value of IC50 was more than 200 nM.); that for `COc1cccc(CNC(=S)NC[C@H]2CC[C@@H](Nc3nc(N(C)C)c4ccccc4n3)CC2)c1` [compound 733], 3 (Class 3: The value of percent of control at 10^−7 M was more than 60% or the value of IC50 was more than 200 nM.). Still for that read-out and setting: as for `CN(C)c1nc(N[C@H]2CC[C@@H](CNC(=O)Nc3ccc(I)cc3)CC2)nc2ccccc12` [compound 555, N-[(cis-4-{[4-(dimethylamino)quinazolin-2-yl]amino}cyclohexyl)methyl]-N′-(4-iodophenyl)urea], the figure is 2 (Class 2: The value of percent of control at 10^−7 M was from 40% to 60% or the value of IC50 was from 50 nM to 200 nM.); as for `CN(C)c1nc(N[C@H]2CC[C@@H](NC(=S)Nc3ccc(SC(F)(F)F)cc3)CC2)nc2ccccc12` [compound 232], 3 (Class 3: The value of percent of control at 10^−7 M was more than 60% or the value of IC50 was more than 200 nM.); as for `COC(=O)c1cccc(NC(=S)N[C@H]2CC[C@@H](Nc3nc(N(C)C)c4ccccc4n3)CC2)c1` [compound 263], 1 (Class 1: The value of percent of control at 10^−7 M was less than 40% or the value of IC50 was less than 50 nM.). As for `CN(C)c1nc(N[C@H]2CC[C@@H](CNC(=O)Nc3cccc(F)c3)CC2)nc2ccccc12` [compound 438, N-[(cis-4-{[4-(dimethylamino)quinazolin-2-yl]amino}cyclohexyl)methyl]-N′-(3-fluorophenyl)urea], the class is listed as 2 (Class 2: The value of percent of control at 10^−7 M was from 40% to 60% or the value of IC50 was from 50 nM to 200 nM.). Consider `CN(C)c1nc(N[C@H]2CC[C@@H](NC(=S)Nc3ccccc3-c3ccccc3)CC2)nc2ccccc12` [compound 297, N-biphenyl-2-yl-N′-(cis-4-{[4-(dimethylamino)quinazolin-2-yl]amino}cyclohexyl)thiourea], for which the class is listed as 1 (Class 1: The value of percent of control at 10^−7 M was less than 40% or the value of IC50 was less than 50 nM.).

The same test, now with this note: class by percent of control at 10^-7 M or by IC50; read-out: class.
As to `CN(C)c1nc(N[C@H]2CC[C@@H](CNC(=O)OCC(Cl)(Cl)Cl)CC2)nc2ccccc12` [compound 885], the IC50 was above 200 nM. Regarding `CCCNC(=S)N[C@H]1CC[C@@H](Nc2nc(N(C)C)c3ccccc3n2)CC1` [compound 193, N-(cis-4-{[4-(dimethylamino)quinazolin-2-yl]amino}cyclohexyl)-N′-propylthiourea], the IC50 is 50 to 200 nM.

For the compound `CN(C)c1nc(N[C@H]2CC[C@@H](CNC(=S)NCC3CC3)CC2)nc2ccccc12` [compound 800], the IC50 was in the range of 50 to 200 nM.

In the case of `Cc1c(Cl)cccc1NC(=O)N[C@H]1CC[C@@H](Nc2nc(N(C)C)c3ccccc3n2)CC1` [compound 129], the IC50 was below 50 nM.

Regarding `COC(=O)c1sccc1NC(=S)NC[C@H]1CC[C@@H](Nc2nc(N(C)C)c3ccccc3n2)CC1` [compound 802], the IC50 was above 200 nM. Turning to `Cc1cccc(C(C)C)c1NC(=O)N[C@H]1CC[C@@H](Nc2nc(N(C)C)c3ccccc3n2)CC1` [compound 102, N-(cis-4-{[4-(dimethylamino)quinazolin-2-yl]amino}cyclohexyl)-N′-(2-isopropyl-6-methylphenyl)urea], the IC50 was below 50 nM.

Staying with this test, now noted: class by percent of control at 10^−7 M or by IC50; read-out: class.
On to `CN(C)c1nc(N[C@H]2CC[C@@H](NC(=O)c3ccc(Oc4cccc(F)c4F)nc3)CC2)nc2ccccc12` [Example 1064, 6-(2,3-difluorophenoxy)-N-(cis-4-{[4-(dimethylamino)quinazolin-2-yl]amino}cyclohexyl)nicotinamide], for which the IC50 was below 50 nM. For `COc1cccc(Oc2ccc(C(=O)N[C@H]3CC[C@@H](Nc4nc(N(C)C)c5ccccc5n4)CC3)cn2)c1OC` [Example 1066, 6-(2,3-dimethoxyphenoxy)-N-(cis-4-{[4-(dimethylamino)quinazolin-2-yl]amino}cyclohexyl)nicotinamide], the IC50 is below 50 nM. On the same count and under the same terms, the result for `CN(C)c1nc(N[C@H]2CC[C@@H](C(=O)NCc3c(F)ccc(Cl)c3F)CC2)nc2ccccc12` [Example 1147, cis-N-(3-chloro-2,6-difluorobenzyl)-4-{[4-(dimethylamino)quinazolin-2-yl]amino}cyclohexanecarboxamide] reads below 50 nM; that for `COc1ccc(C(O)C(=O)NC[C@H]2CC[C@@H](Nc3nc(N(C)C)c4ccccc4n3)CC2)cc1` (relative stereo) [Example 1096, N-[(cis-4-{[4-(dimethylamino)quinazolin-2-yl]amino}-cyclohexyl)-methyl]-2-hydroxy-2-(4-methoxyphenyl)acetamide], 50 to 200 nM. For the compound `C[C@H](NC(=O)[C@H]1CC[C@@H](Nc2nc(N(C)C)c3ccccc3n2)CC1)c1cccc2ccccc12` [Example 1141, cis-4-{[4-(dimethylamino)quinazolin-2-yl]amino}-N-[(1S)-1-(1-naphthyl)ethyl]cyclohexanecarboxamide], the IC50 was below 50 nM.

With `CN(C)c1nc(N[C@H]2CC[C@@H](C(=O)NCc3ccccc3OC(F)(F)F)CC2)nc2ccccc12` [Example 1167, cis-4-{[4-(dimethylamino)quinazolin-2-yl]amino}-N-[2-(trifluoromethoxy)benzyl]cyclohexanecarboxamide], the IC50 was below 50 nM. Turning to `CN(C)c1nc(N[C@H]2CC[C@@H](CNC(=O)C(O)c3cc(F)ccc3F)CC2)nc2ccccc12` (relative stereo) [Example 1094, 2-(2,5-difluorophenyl)-N-[(cis-4-{[4-(dimethylamino)quinazolin-2-yl]amino}cyclohexyl)methyl]-2-hydroxyacetamide], the IC50 is above 200 nM. Take `COc1ccc(NC(=O)N[C@H]2CC[C@@H](Nc3nc(N(C)C)c4ccccc4n3)CC2)cc1OC` [Example 1010, N-(3,4-dimethoxyphenyl)-N′-(cis-4-{[4-(dimethylamino)quinazolin-2-yl]amino}cyclohexyl)urea]: the IC50 was below 50 nM. Same read-out and setting: as for `CN(C)c1nc(N[C@H]2CC[C@@H](C(=O)NC3c4ccccc4-c4ccccc43)CC2)nc2ccccc12` [Example 1194, cis-4-{[4-(dimethylamino)quinazolin-2-yl]amino}-N-9H-fluoren-9-ylcyclohexanecarboxamide], the figure is below 50 nM. Still for that read-out and setting: the result for `CN(C)c1nc(N[C@H]2CC[C@@H](NC(=O)c3cccnc3Oc3ccc(Cl)c(F)c3)CC2)nc2ccccc12` [Example 1042, 2-(4-chloro-3-fluorophenoxy)-N-(cis-4-{[4-(dimethylamino)quinazolin-2-yl]amino}cyclohexyl)nicotinamide] reads below 50 nM.

The record behind these values is patent publication US20070010671A1, “Novel quinazoline derivatives and methods of treatment related to the use thereof” (priority 2003, published 2007).
